# ChEMBL document CHEMBL1142323, “Inhibition of carbonic anhydrases with glycosyltriazole benzene sulfonamides” (J Med Chem, 2008)
# Experiments:
# Carbonic anhydrase 1 = Carbonic anhydrase 1 (Homo sapiens, UniProt P00915)
# Carbonic anhydrase 2 = Carbonic anhydrase 2 (Homo sapiens, UniProt P00918)
# Carbonic anhydrase 9 = Carbonic anhydrase 9 (Homo sapiens, UniProt Q16790)
# Sequence of Carbonic anhydrase 1 (P00915 whole entry): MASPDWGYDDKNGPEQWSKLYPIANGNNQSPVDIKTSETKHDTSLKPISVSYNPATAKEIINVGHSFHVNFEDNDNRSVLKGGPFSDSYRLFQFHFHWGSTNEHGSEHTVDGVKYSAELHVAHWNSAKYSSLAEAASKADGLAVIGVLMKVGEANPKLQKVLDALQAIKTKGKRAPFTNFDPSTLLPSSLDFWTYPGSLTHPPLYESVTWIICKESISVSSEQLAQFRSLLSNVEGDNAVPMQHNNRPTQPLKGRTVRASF
smiles,measurement,setting,value
CC(=O)OC[C@H]1O[C@@H](n2cc(-c3ccc(S(N)(=O)=O)cc3)nn2)[C@H](OC(C)=O)[C@@H](OC(C)=O)[C@@H]1OC(C)=O,Ki,Carbonic anhydrase 1,4400 nM
same,Ki,Carbonic anhydrase 2,9.1 nM
COC(=O)[C@H]1O[C@@H](n2cc(-c3ccc(S(N)(=O)=O)cc3)nn2)[C@H](O)[C@@H](O)[C@@H]1O,Ki,Carbonic anhydrase 9,8.4 nM
NS(=O)(=O)c1ccc(-c2cn([C@@H]3O[C@H](CO)[C@@H](O)[C@H](O)[C@H]3O)nn2)cc1,Ki,Carbonic anhydrase 1,9.4 nM
same,Ki,Carbonic anhydrase 2,380 nM
same,Ki,Carbonic anhydrase 9,89 nM
CC(=O)N[C@@H]1[C@@H](OC(C)=O)[C@H](OC(C)=O)[C@@H](COC(C)=O)O[C@H]1n1cc(-c2ccc(S(N)(=O)=O)cc2)nn1,Ki,Carbonic anhydrase 9,101 nM
NS(=O)(=O)c1ccc(-c2cn([C@@H]3O[C@H](CO)[C@H](O)[C@H](O)[C@H]3O)nn2)cc1,Ki,Carbonic anhydrase 1,9.3 nM
same,Ki,Carbonic anhydrase 2,8.8 nM
same,Ki,Carbonic anhydrase 9,120 nM
CC(=O)OC[C@H]1O[C@@H](n2cc(-c3ccc(S(N)(=O)=O)cc3)nn2)[C@H](OC(C)=O)[C@@H](OC(C)=O)[C@@H]1O[C@H]1O[C@H](COC(C)=O)[C@@H](OC(C)=O)[C@H](OC(C)=O)[C@H]1OC(C)=O,Ki,Carbonic anhydrase 9,120 nM
NS(=O)(=O)c1ccc(-c2cn([C@@H]3O[C@H](CO)[C@@H](O[C@H]4O[C@H](CO)[C@@H](O)[C@H](O)[C@H]4O)[C@H](O)[C@H]3O)nn2)cc1,Ki,Carbonic anhydrase 9,130 nM
NS(=O)(=O)c1ccc(-c2cn([C@@H]3O[C@H](CO)[C@@H](O)[C@H]3O)nn2)cc1,Ki,Carbonic anhydrase 9,121 nM
COC(=O)[C@H]1O[C@@H](n2cc(-c3ccc(S(N)(=O)=O)cc3)nn2)[C@H](OC(C)=O)[C@@H](OC(C)=O)[C@@H]1OC(C)=O,Ki,Carbonic anhydrase 9,9.9 nM
CC(=O)OC[C@H]1O[C@@H](n2cc(-c3ccc(S(N)(=O)=O)cc3)nn2)[C@H](OC(C)=O)[C@@H](OC(C)=O)[C@H]1OC(C)=O,Ki,Carbonic anhydrase 1,4300 nM
same,Ki,Carbonic anhydrase 2,8.7 nM
same,Ki,Carbonic anhydrase 9,110 nM
"NS(=O)(=O)c1ccc(-c2cn(C3O[C@H](CO)[C@@H](O)[C@H](O)[C@@H]3O)nn2)cc1 (single isomer, unassigned)",Ki,Carbonic anhydrase 1,2.8 nM
same,Ki,Carbonic anhydrase 2,7.6 nM
same,Ki,Carbonic anhydrase 9,5.4 nM
"CC(=O)O[C@H]1[C@H](OC(C)=O)C(n2cc(-c3ccc(S(N)(=O)=O)cc3)nn2)OC[C@H]1OC(C)=O (single isomer, unassigned)",Ki,Carbonic anhydrase 9,134 nM
"CC(=O)OC[C@H]1OC(n2cc(-c3ccc(S(N)(=O)=O)cc3)nn2)[C@@H](OC(C)=O)[C@@H](OC(C)=O)[C@@H]1OC(C)=O (single isomer, unassigned)",Ki,Carbonic anhydrase 1,1.6 nM
same,Ki,Carbonic anhydrase 2,2.1 nM
same,Ki,Carbonic anhydrase 9,5 nM
